20 molecules from PubChem BioAssay AID266 (DTP/NCI, 2004) can be followed below.

Values joined by “and” are separate entries in the source; they are usually repeats but may differ in a detail not shown here. Identical values can stand only once. Inconclusive results are not listed.

In the assay the test system is Nude mice, LX-1 lung xenograft intrarenal, tumor weight T/C. The assay can be described thus: NCI In Vivo Anticancer Drug Screen. Data for tumor model Human Lung LX-1 Xenograft (intrarenal inoculation) in NU/NU BALB/C (nude) mice. As to conditions: endpoint: mean tumor weight change, higher = larger tumour. How it is done: The antitumor activity of compounds was measured in mice bearing transplantable tumors. Survival or tumor size were measured and the results are expressed as the measurement made in the treated group (T) divided by the measurement made in the vehicle treated control group (C). The tumor model used in this assay is Human Lung LX-1 Xenograft (intrarenal inoculation) in NU/NU BALB/C (nude) mice
In general terms: Xenograft models place foreign cells or tissue in a host animal.

[1] abbreviates: dose: 50.0 mg/kg/injection, schedule: Q01DX010 (sc), vehicle: saline with Tween-80.
Where [2] appears, read: dose: 300.0 mg/kg/injection, schedule: Q04DX003 (sc), vehicle: saline with Tween-80.
[3] abbreviates: dose: 1200.0 mg/kg/injection, schedule: Q04DX003 (sc), vehicle: saline with Tween-80.
The mark [4] stands for this setting: dose: 1.0 mg/kg/injection, schedule: Q01DX010 (sc), vehicle: Klucel (hydroxypropylcellulose) (HPC).

For `OC1OC2COC(c3ccccc3)OC2C(O)C1O` (centres undefined), the T/C runs as follows: (dose: 300.0 mg/kg/injection, schedule: Q04DX003 (sc), vehicle: water) 101 % of control; (dose: 600.0 mg/kg/injection, schedule: Q04DX003 (sc), vehicle: water) 117 % of control; (dose: 1200.0 mg/kg/injection, schedule: Q04DX003 (sc), vehicle: water) 105 % of control; (dose: 2400.0 mg/kg/injection, schedule: Q04DX003 (sc), vehicle: water) 90 % of control.
For the molecule `CC1(CO)C(O)CCC2(C)C1CCC1CC3CC12CCC3(O)CO` (centres undefined), the T/C was 86 % of control under setting [1] and 34 % of control (dose: 400.0 mg/kg/injection, schedule: Q01DX010 (sc), vehicle: saline with Tween-80).
Regarding `CC(=O)NC(CCc1ccc(Cl)c(Cl)c1)c1cccc(O)c(=O)c1` (centres undefined), the T/C (dose: 50.0 mg/kg/injection, schedule: Q04DX003 (ip), vehicle: Klucel (hydroxypropylcellulose) (HPC)) was 52 % of control; the T/C (dose: 100.0 mg/kg/injection, schedule: Q04DX003 (ip), vehicle: Klucel (hydroxypropylcellulose) (HPC)) was 62 % of control; the T/C (dose: 200.0 mg/kg/injection, schedule: Q04DX003 (ip), vehicle: Klucel (hydroxypropylcellulose) (HPC)) is 57 % of control.
Take `O=S(CCCl)CCCl`: the T/C reads like this: (dose: 25.0 mg/kg/injection, schedule: Q04DX003 (sc), vehicle: Klucel (hydroxypropylcellulose) (HPC)) 81 % of control; (dose: 50.0 mg/kg/injection, schedule: Q04DX003 (sc), vehicle: Klucel (hydroxypropylcellulose) (HPC)) 76 % of control.
Take `O=C1N=C(Oc2ccccc2)SC1=O`: the T/C is 87 % of control (dose: 100.0 mg/kg/injection, schedule: Q04DX003 (sc), vehicle: saline with Tween-80); 93 % of control (dose: 200.0 mg/kg/injection, schedule: Q04DX003 (sc), vehicle: saline with Tween-80); 54 % of control (dose: 400.0 mg/kg/injection, schedule: Q04DX003 (sc), vehicle: saline with Tween-80).
For `CC(=O)Nc1cscc1NC(C)=O`, the T/C (dose: 150.0 mg/kg/injection, schedule: Q04DX003 (sc), vehicle: saline with Tween-80) was 89 % of control; the T/C under setting [2] is 121 % of control; the T/C (dose: 600.0 mg/kg/injection, schedule: Q04DX003 (sc), vehicle: saline with Tween-80) was 111 % of control; the T/C under setting [3] is 110 % of control.
For the molecule `O=C1NC(O)CCN1C1OC(CO)C(O)C1O` (centres undefined), the T/C was 257 % of control (dose: 200.0 mg/kg/injection, schedule: Q01DX010 (sc), vehicle: water); 196 % of control (dose: 400.0 mg/kg/injection, schedule: Q01DX010 (sc), vehicle: water); 223 % of control (dose: 800.0 mg/kg/injection, schedule: Q01DX010 (sc), vehicle: water); 176 % of control (dose: 1600.0 mg/kg/injection, schedule: Q01DX010 (sc), vehicle: water).
As for `COc1ccc(S(=O)(=O)N/N=C/C(=O)O)cc1`, the T/C was 210 % of control under setting [1]; 119 % of control (dose: 100.0 mg/kg/injection, schedule: Q01DX010 (sc), vehicle: saline with Tween-80); 72 % of control (dose: 200.0 mg/kg/injection, schedule: Q01DX010 (sc), vehicle: saline with Tween-80).
Consider `Cc1ccc(S(=O)(=O)NC(=O)C2C(=O)CC3(CCCCC3)CC2=O)cc1`, for which the T/C is, setting by setting: (dose: 300.0 mg/kg/injection, schedule: Q04DX003 (sc), vehicle: Klucel (hydroxypropylcellulose) (HPC)) 122 % of control; (dose: 600.0 mg/kg/injection, schedule: Q04DX003 (sc), vehicle: Klucel (hydroxypropylcellulose) (HPC)) 101 % of control; (dose: 2400.0 mg/kg/injection, schedule: Q04DX003 (sc), vehicle: Klucel (hydroxypropylcellulose) (HPC)) 84 % of control.
Consider `C[C@@]1(CO)[C@H](O)CC[C@@]2(C)[C@H]1CC[C@H]1C[C@@H]3C[C@@]12CC[C@@]3(O)COC(=O)CN`, for which the T/C was 109 % of control (dose: 100.0 mg/kg/injection, schedule: Q01DX010 (sc), vehicle: saline + alcohol) and 54 % of control (dose: 200.0 mg/kg/injection, schedule: Q01DX010 (sc), vehicle: saline + alcohol).
`O=NN(CCCl)C(=O)NCCO`: the T/C runs as follows: (dose: 3.13 mg/kg/injection, schedule: Q04DX003 (sc), vehicle: water) 113 % of control; (dose: 6.25 mg/kg/injection, schedule: Q04DX003 (sc), vehicle: water) 26 % of control; (dose: 12.5 mg/kg/injection, schedule: Q04DX003 (sc), vehicle: water) -25 % of control.
As to `CC(=O)OCC1(C)NC(=O)c2ccccc2O1` (centres undefined), the T/C under setting [2] was 86 % of control and the T/C under setting [3] was 91 % of control.
Take `COc1cccc2c1C(=O)c1c(O)c3c(c(O)c1C2=O)CC(O)(C(=O)CO)CC3OC1CC(N)C(O)C(C)O1` (centres undefined): the T/C was 86 % of control (dose: 50.0 mg/kg/injection, schedule: Q04DX003 (sc), vehicle: water); 103 % of control (dose: 100.0 mg/kg/injection, schedule: Q04DX003 (sc), vehicle: water); 90 % of control (dose: 200.0 mg/kg/injection, schedule: Q04DX003 (sc), vehicle: water); 103 % of control (dose: 400.0 mg/kg/injection, schedule: Q04DX003 (sc), vehicle: water).
As to `C[C@]12C=CC(=O)C=C1CC[C@@H]1[C@@H]2[C@@H](O)C[C@@]2(C)[C@H]1CC[C@]2(O)C(=O)CO`, the T/C (dose: 50.0 mg/kg/injection, schedule: Q01DX010 (sc), vehicle: Klucel (hydroxypropylcellulose) (HPC)) is 63 % of control.
In the case of `CN1c2c(nc(N)[nH]c2=O)NCC1CCNc1ccc(C(=O)NC(CCC(=O)O)C(=O)O)cc1` (centres undefined), the T/C was 56 % of control (dose: 100.0 mg/kg/injection, schedule: Q01DX010 (sc), vehicle: saline); 28 % of control (dose: 200.0 mg/kg/injection, schedule: Q01DX010 (sc), vehicle: saline); 49 % of control (dose: 400.0 mg/kg/injection, schedule: Q01DX010 (sc), vehicle: saline); 34 % of control (dose: 800.0 mg/kg/injection, schedule: Q01DX010 (sc), vehicle: saline).
Regarding `Cc1ccc(S(=O)(=O)N/N=C/C(Br)=C(/Br)C(=O)O)cc1`, the T/C (dose: 1.25 mg/kg/injection, schedule: Q04DX003 (sc), vehicle: saline) is 122 % of control; the T/C (dose: 5.0 mg/kg/injection, schedule: Q04DX003 (sc), vehicle: saline) was 115 % of control; the T/C (dose: 10.0 mg/kg/injection, schedule: Q04DX003 (sc), vehicle: saline) is 82 % of control.
As to `N[C@H](C(=O)O)[C@@H]1CC(Cl)=NO1`, the T/C is 44 % of control (dose: 0.5 mg/kg/injection, schedule: Q01DX010 (sc), vehicle: saline); 223 % of control and 82 % of control (dose: 2.0 mg/kg/injection, schedule: Q01DX010 (sc), vehicle: saline); 150 % of control (dose: 2.0 mg/kg/injection, schedule: Q02DX005 (sc), vehicle: saline); 227 % of control (dose: 4.0 mg/kg/injection, schedule: Q02DX005 (sc), vehicle: saline); 361 % of control (dose: 8.0 mg/kg/injection, schedule: Q01DX010 (sc), vehicle: saline); 159 % of control (dose: 8.0 mg/kg/injection, schedule: Q02DX005 (sc), vehicle: saline). Also, the T/C (dose: 16.0 mg/kg/injection, schedule: Q01DX010 (sc), vehicle: saline) was 63 % of control; the T/C (dose: 16.0 mg/kg/injection, schedule: Q02DX005 (sc), vehicle: saline) is 253 % of control; the T/C (dose: 32.0 mg/kg/injection, schedule: Q01DX010 (sc), vehicle: saline) is 35 % of control; the T/C (dose: 32.0 mg/kg/injection, schedule: Q02DX005 (sc), vehicle: saline) is 68 % of control.
For `CC[C@](C)(O)C(=O)O[C@H]1C(=O)O[C@@H]2C[C@H]3C(C)=CC(=O)[C@@H](O)[C@]3(C)[C@H]3[C@@]4(O)OC[C@]32[C@@H]1[C@@H](C)[C@H]4O`, the T/C is, setting by setting: (dose: 0.5 mg/kg/injection, schedule: Q01DX010 (sc), vehicle: Klucel (hydroxypropylcellulose) (HPC)) 38 % of control; under setting [4], 17 % of control.
Turning to `O=[N+]([O-])O.O=[N+]([O-])O.[NH-]C1CCCCC1[NH-].[Pt+2]` (centres undefined), the T/C (dose: 0.5 mg/kg/injection, schedule: Q01DX010 (sc), vehicle: dextrose) is 76 % of control and the T/C (dose: 1.0 mg/kg/injection, schedule: Q01DX010 (sc), vehicle: dextrose) is 80 % of control.
As to `CCCCCn1c(C)cc(/C=C\c2ccc3cc(C)ccc3[n+]2C)c1C`, the T/C is, setting by setting: (dose: 0.25 mg/kg/injection, schedule: Q01DX010 (sc), vehicle: Klucel (hydroxypropylcellulose) (HPC)) 214 % of control; under setting [4], 212 % of control; (dose: 2.0 mg/kg/injection, schedule: Q01DX010 (sc), vehicle: Klucel (hydroxypropylcellulose) (HPC)) 119 % of control.
